Results taken from PMC9189845, “Structure–Activity Relationships of 8-Hydroxyquinoline-Derived Mannich Bases with Tertiary Amines Targeting Multidrug-Resistant Cancer” (Journal of Medicinal Chemistry, 2022).
Where two headings read alike, the source gives them in different places.

How the values were obtained:
A431 cells = assay: PrestoBlue viability assay, A431 cells; conditions: Homo sapiens
MES-SA cells = assay: PrestoBlue viability assay, MES-SA cells; conditions: Homo sapiens, MES-SA
A431-B1 cells = assay: PrestoBlue viability assay, A431-B1 (A431-ABCB1) cells; conditions: for SR (A431 / A431-B1): fraction of IC50 in P-gp negative vs positive cells
MES-SA/Dx5 cells = assay: PrestoBlue viability assay, MES-SA/Dx5 cells (MDR, P-gp positive); conditions: for IC50: Homo sapiens; for SR_TQ: selectivity ratio MES-SA vs MES-SA/Dx5, with TQ; for SR: selectivity ratio MES-SA vs MES-SA/Dx5, without TQ; for SR (MES-SA_TQ / Dx5_TQ) (values in parentheses): fraction of IC50 in P-gp negative vs positive cells, presence of 1 μM TQ
[1] = A-431, 72 h, read-out: IC50 / µM A431, 72 h incubation
[2] = A-431, read-out: pIC50 A431, SARM figure (converted)
[3] = 72 h, read-out: IC50 / μM MES-SA, absence of TQ, 72 h incubation
[4] = read-out: IC50 / μM MES-SA (values in parentheses), presence of 1 μM P-gp inhibitor tariquidar (TQ)
[5] = read-out: pIC50 MES-SA, absence of TQ (converted), SARM figure
[6] = read-out: pIC50 MES-SA_TQ, presence of 1 μM TQ (converted), SARM figure
[7] = read-out: pIC50 value MES-SA+TQ, MES-SA cells, with TQ (converted)
[8] = read-out: pIC50 value MES-SA, MES-SA cells, without TQ (converted)
[9] = 72 h, read-out: IC50 / µM A431-B1, 72 h incubation
[10] = read-out: pIC50 A431-B1, SARM figure (converted)
[11] = MES-SA/Dx5, 72 h, read-out: IC50 / μM MES-SA/Dx5, absence of TQ, 72 h incubation
[12] = MES-SA/Dx5, read-out: IC50 / μM MES-SA/Dx5 (values in parentheses), presence of 1 μM P-gp inhibitor tariquidar (TQ)
[13] = MES-SA/Dx5, read-out: pIC50 value MES-SA/Dx5 + TQ, MES-SA/Dx5 cells, with TQ (converted)
[14] = MES-SA/Dx5, read-out: pIC50 value MES-SA/Dx5, MES-SA/Dx5 cells, without TQ (converted)
[15] = MES-SA/Dx5, read-out: pIC50 Dx5_TQ, presence of 1 μM TQ (converted), SARM figure

| SMILES | IC50 (A431 cells; [1]) [µM] | IC50 (A431 cells; [2]) [µM] | IC50 (A431-B1 cells; [9]) [µM] | IC50 (A431-B1 cells; [10]) [µM] | IC50 (MES-SA cells; [3]) [µM] | IC50 (MES-SA cells; [4]) [µM] | IC50 (MES-SA cells; [5]) [µM] | IC50 (MES-SA cells; [6]) [µM] | IC50 (MES-SA cells; [7]) [µM] | IC50 (MES-SA cells; [8]) [µM] | IC50 (MES-SA/Dx5 cells; [11]) [µM] | IC50 (MES-SA/Dx5 cells; [12]) [µM] | IC50 (MES-SA/Dx5 cells; [13]) [µM] | IC50 (MES-SA/Dx5 cells; [14]) [µM] | SR_TQ (MES-SA/Dx5 cells) | SR (MES-SA/Dx5 cells) | SR (MES-SA_TQ / Dx5_TQ) (values in parentheses) (MES-SA/Dx5 cells) | SR (A431 / A431-B1) (A431-B1 cells) | IC50 (MES-SA/Dx5 cells; [15]) [µM] | IC50 (MES-SA/Dx5 cells; MES-SA/Dx5, read-out: pIC50 Dx5, absence of TQ (converted), SARM figure) [µM] |
| --- | --- | --- | --- | --- | --- | --- | --- | --- | --- | --- | --- | --- | --- | --- | --- | --- | --- | --- | --- | --- |
| CC1CCN(Cc2cc(COC(C)C)c3cccnc3c2O)CC1 [Compound 28] | 7.24 ± 1.78 | 7.08 | 1.72 ± 0.15 | 1.7 | 2.84 ± 0.35 | 3.02 ± 0.09 |  |  | 3.02 | 2.82 | 0.36 ± 0.04 | 2.15 ± 0.22 | 2.14 | 0.355 | 1.41 | 7.96 |  |  |  |  |
| O=[N+]([O-])c1cc(CN(CCO)CCO)c(O)c2ncccc12 [Compound 7] | 9.79 ± 1.13 |  | 9.18 ± 0.58 |  | 6.46 ± 0.49 |  |  |  |  | 6.46 | 4.33 ± 0.2 |  |  | 4.37 |  | 1.49 |  | 1.07 |  |  |
| Oc1c(CN2CCOCC2)ccc2cccnc12 [Compound 8] | 14.5 ± 0.32 |  | 6.51 ± 0.65 |  | 7.55 ± 0.91 |  |  |  |  | 7.41 | 4.33 ± 0.31 |  |  | 4.27 |  | 1.75 |  | 2.23 |  |  |
| COCc1cc(CN2CCCCC2)c(O)c2ncccc12 [Compound 21] | 22.6 ± 4.32 | 22.4 | 3.53 ± 0.14 | 3.55 | 9.35 ± 0.61 | 9.56 ± 0.39 |  |  | 9.55 | 9.33 | 0.92 ± 0.11 | 7.59 ± 0.08 | 7.59 | 0.912 | 1.26 | 10.19 |  |  |  |  |
| Oc1c(C(c2ccncc2)N2CCCCC2)ccc2cccnc12 (stereo not drawn) [Compound 96] |  | 35.5 |  | 4.57 | 22.7 ± 0.86 |  | 15.5 | 13.8 |  | 22.9 | 14 ± 1.5 |  |  | 13.8 |  | 1.62 |  |  | 12.6 | 8.32 |
| CC1CCN(Cc2cc(Cl)c3cccnc3c2O)CC1 [Compound 25] | 8.93 ± 1.44 | 8.71 | 1.46 ± 0.08 | 1.45 | 2.7 ± 0.21 | 2.88 |  |  | 2.88 | 2.69 | 0.26 ± 0.04 | 1.59 | 1.58 | 0.257 | 1.82 | 10.37 |  |  |  |  |

Now from value to molecule, other results behind:

| IC50 (A431 cells; [1]) [µM] | IC50 (A431 cells; [2]) [µM] | IC50 (A431-B1 cells; [9]) [µM] | IC50 (A431-B1 cells; [10]) [µM] | SMILES | IC50 (MES-SA cells; [3]) [µM] | IC50 (MES-SA cells; [4]) [µM] | IC50 (MES-SA cells; [5]) [µM] | IC50 (MES-SA cells; [6]) [µM] | IC50 (MES-SA cells; [7]) [µM] | IC50 (MES-SA cells; [8]) [µM] | IC50 (MES-SA/Dx5 cells; [11]) [µM] | IC50 (MES-SA/Dx5 cells; [12]) [µM] | IC50 (MES-SA/Dx5 cells; [13]) [µM] | IC50 (MES-SA/Dx5 cells; [14]) [µM] | SR_TQ (MES-SA/Dx5 cells) | SR (MES-SA/Dx5 cells) | SR (MES-SA_TQ / Dx5_TQ) (values in parentheses) (MES-SA/Dx5 cells) | SR (A431 / A431-B1) (A431-B1 cells) | IC50 (MES-SA/Dx5 cells; [15]) [µM] | IC50 (MES-SA/Dx5 cells; MES-SA/Dx5, read-out: pIC50 Dx5, absence of TQ (converted), SARM figure) [µM] |
| --- | --- | --- | --- | --- | --- | --- | --- | --- | --- | --- | --- | --- | --- | --- | --- | --- | --- | --- | --- | --- |
| 66.6 ± 20.8 | 63.1 | 24.1 ± 10.1 | 22.4 | CCOCc1cc(CN2CCN(C)CC2)c(O)c2ncccc12 [Compound 36] | 23 ± 1.46 | 22.9 ± 1.08 | 22.9 | 22.9 | 22.9 | 22.9 | 7.43 ± 0.46 | 17.1 ± 2.19 | 17 | 7.41 | 1.34 | 3.09 |  |  |  |  |
| 77.2 ± 11.6 | 75.9 | 26.49 ± 0.12 | 26.3 | COCc1cc(CN2CCN(C)CC2)c(O)c2ncccc12 [Compound 35] | 24.8 ± 3.36 | 30.2 ± 0.64 |  |  | 30.2 | 24.5 | 8.82 ± 1.41 | 27.54 ± 0.13 |  | 8.71 | 1.1 | 2.81 | 1.10 |  |  |  |
| 23.3 | 23.4 | 31.2 | 30.9 | Cc1ccccc1N1CCN(Cc2ccc(O)c3ncccc23)CC1 [Compound 58] | 5.84 ± 1.02 | 5.78 ± 0.49 | 5.75 | 5.75 | 5.75 | 5.75 | 3.01 ± 0.58 | 3.02 ± 0.01 |  | 2.95 | 1.91 | 1.94 |  |  |  |  |
| 4.04 ± 0.39 | 3.98 | 3.25 ± 0.94 | 3.09 | Oc1c(CN2CCN(c3ccc(F)cc3)CC2)cc(Cl)c2cccnc12 [Compound 44] | 1.61 ± 0.3 | 1.75 ± 0.16 |  |  | 1.74 | 1.58 | 0.25 ± 0.01 | 0.65 ± 0.05 | 0.646 | 0.245 | 2.7 | 6.56 | 2.70 |  |  |  |
| 5.69 ± 0.76 | 5.62 | 2.41 ± 0.37 | 2.4 | CCCOCc1cc(CN2CCN(c3ccccc3)CC2)c(O)c2ncccc12 [Compound 41] | 1.45 ± 0.13 | 1.45 ± 0.07 | 1.45 | 1.45 | 1.45 | 1.45 | 0.24 ± 0.03 | 0.83 ± 0.01 | 0.832 | 0.24 | 1.74 | 6.01 |  |  | 0.955 |  |
| 7.35 ± 2.49 | 6.92 | 1.84 ± 0.48 | 1.78 | CC(C)OCc1cc(CN2CCN(c3ccccc3)CC2)c(O)c2ncccc12 [Compound 42] | 1.06 ± 0.19 | 1.01 ± 0.16 |  |  | 1 | 1.05 | 0.25 ± 0.05 | 0.66 ± 0.13 | 0.646 | 0.245 | 1.54 | 4.24 |  |  |  |  |
| 34.4 ± 8.42 | 33.1 | 12.1 ± 1.47 | 12 | COCc1cc(CN2CCOCC2)c(O)c2ncccc12 [Compound 31] | 9.89 ± 1.52 | 8.97 ± 1.01 |  |  | 8.91 | 9.77 | 5.64 ± 0.45 | 7.77 ± 0.31 | 7.76 | 5.62 | 1.15 | 1.75 |  |  |  |  |
| 24.7 ± 10.9 | 22.4 | 5.58 ± 0.58 | 5.5 | CCOCc1cc(CN2CCOCC2)c(O)c2ncccc12 [Compound 32] | 5.85 ± 0.54 |  |  |  |  | 5.75 | 3 ± 0.3 |  |  | 2.95 |  | 1.95 |  |  |  |  |
